From ChEMBL document CHEMBL1201862, “PubChem BioAssay data set” (2004)
The source made the active and inactive calls.

How the values were obtained:
[1] = cells; type: functional, cell-based
[2] = cells; type: functional, cell-based; remark: listed apart in the source
[3] = target: T1, Fatty acid synthase (Homo sapiens, UniProt P49327); test: FAS thioesterase domain inhibitors, dose response, biochemical, endpoint fluorescence intensity, uHTS hits (AID 624327); type: functional;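 also: fluorescence from hydrolysis of an O-methyl fluorescein acyl ester substrate by the enzyme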
T1 sequence (P49327 whole entry, the tested form may be a part): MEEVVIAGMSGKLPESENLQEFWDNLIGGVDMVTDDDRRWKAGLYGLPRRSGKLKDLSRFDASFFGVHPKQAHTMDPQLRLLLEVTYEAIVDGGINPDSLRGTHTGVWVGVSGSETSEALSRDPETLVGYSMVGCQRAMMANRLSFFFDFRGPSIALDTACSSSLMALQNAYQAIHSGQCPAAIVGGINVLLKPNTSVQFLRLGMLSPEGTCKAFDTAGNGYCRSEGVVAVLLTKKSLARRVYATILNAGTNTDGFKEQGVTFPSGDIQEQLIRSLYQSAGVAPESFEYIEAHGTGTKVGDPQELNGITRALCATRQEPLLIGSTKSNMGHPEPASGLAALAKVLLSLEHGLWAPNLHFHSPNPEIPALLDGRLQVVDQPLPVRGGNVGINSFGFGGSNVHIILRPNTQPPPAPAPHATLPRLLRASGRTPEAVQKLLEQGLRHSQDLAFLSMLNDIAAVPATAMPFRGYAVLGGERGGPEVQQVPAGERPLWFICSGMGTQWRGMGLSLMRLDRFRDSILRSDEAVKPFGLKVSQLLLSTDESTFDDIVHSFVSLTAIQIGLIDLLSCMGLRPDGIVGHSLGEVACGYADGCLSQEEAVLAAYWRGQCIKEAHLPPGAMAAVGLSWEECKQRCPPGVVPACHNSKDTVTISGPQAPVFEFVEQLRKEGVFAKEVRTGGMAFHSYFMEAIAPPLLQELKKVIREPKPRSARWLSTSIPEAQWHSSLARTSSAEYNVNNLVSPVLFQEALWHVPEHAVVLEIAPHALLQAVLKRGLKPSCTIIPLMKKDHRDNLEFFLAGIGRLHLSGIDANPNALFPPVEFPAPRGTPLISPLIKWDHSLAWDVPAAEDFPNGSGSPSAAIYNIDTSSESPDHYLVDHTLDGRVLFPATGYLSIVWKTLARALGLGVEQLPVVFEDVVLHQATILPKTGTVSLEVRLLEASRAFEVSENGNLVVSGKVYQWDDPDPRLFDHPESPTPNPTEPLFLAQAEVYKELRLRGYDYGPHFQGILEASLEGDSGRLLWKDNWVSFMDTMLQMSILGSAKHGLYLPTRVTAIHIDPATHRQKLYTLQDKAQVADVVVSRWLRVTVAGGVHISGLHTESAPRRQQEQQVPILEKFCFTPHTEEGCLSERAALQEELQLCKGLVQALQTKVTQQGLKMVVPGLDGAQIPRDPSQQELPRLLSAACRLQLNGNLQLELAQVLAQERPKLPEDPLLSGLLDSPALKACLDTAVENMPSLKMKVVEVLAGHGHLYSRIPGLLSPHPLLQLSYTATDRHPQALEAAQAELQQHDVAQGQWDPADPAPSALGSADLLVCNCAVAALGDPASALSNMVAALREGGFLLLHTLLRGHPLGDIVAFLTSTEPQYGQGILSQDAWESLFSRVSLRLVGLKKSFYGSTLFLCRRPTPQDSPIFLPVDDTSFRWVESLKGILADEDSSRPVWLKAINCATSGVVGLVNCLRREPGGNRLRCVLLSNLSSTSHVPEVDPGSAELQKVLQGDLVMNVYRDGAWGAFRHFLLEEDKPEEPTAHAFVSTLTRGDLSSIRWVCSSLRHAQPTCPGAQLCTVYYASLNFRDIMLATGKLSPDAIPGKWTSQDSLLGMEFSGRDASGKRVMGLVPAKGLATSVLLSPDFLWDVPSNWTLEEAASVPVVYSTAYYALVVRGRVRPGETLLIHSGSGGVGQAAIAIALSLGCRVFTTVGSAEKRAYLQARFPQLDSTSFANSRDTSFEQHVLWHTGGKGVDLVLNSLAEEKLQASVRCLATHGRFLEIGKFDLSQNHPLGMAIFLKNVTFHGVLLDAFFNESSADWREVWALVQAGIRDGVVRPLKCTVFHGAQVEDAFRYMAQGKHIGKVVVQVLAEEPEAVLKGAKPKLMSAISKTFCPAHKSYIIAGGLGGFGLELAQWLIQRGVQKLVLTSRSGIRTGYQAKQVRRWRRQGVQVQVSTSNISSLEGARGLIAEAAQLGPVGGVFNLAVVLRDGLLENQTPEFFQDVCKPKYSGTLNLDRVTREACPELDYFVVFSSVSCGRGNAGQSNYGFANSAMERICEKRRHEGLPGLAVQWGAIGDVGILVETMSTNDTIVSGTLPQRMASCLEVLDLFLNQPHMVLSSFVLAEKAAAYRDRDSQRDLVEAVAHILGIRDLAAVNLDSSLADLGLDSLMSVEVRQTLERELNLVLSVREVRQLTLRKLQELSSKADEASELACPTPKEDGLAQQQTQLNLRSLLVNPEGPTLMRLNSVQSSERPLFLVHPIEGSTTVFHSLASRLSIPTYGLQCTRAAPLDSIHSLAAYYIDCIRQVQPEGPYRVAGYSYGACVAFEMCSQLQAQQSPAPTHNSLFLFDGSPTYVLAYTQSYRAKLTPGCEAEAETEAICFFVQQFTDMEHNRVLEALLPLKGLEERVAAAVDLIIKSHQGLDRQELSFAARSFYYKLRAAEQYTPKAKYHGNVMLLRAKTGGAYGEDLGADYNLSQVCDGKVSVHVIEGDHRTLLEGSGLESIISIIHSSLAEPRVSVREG

[4] = target: T1, Fatty acid synthase; test: FAS thioesterase domain inhibitors, dose response, biochemical, kinetic fluorescence intensity (AID 624326); type: functional;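 also: rate of fluorescence rise from hydrolysis of a fluorogenic O-methyl fluorescein ester substrate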
[5] = HEp-2 cell cytotoxicity, dose response, cytotoxicity control for RSV inhibitor project, HTS (AID 2410); type: functional; conditions: human respiratory syncytial virus
[6] = target: T2, Zinc finger protein mex-5 (Caenorhabditis elegans, UniProt Q9XUB2); test: MEX-5/TCR-2 RNA interaction inhibitors, dose response, biochemical, C. elegans, fluorescence polarization (AID 1960)
T2 sequence (Q9XUB2 whole entry): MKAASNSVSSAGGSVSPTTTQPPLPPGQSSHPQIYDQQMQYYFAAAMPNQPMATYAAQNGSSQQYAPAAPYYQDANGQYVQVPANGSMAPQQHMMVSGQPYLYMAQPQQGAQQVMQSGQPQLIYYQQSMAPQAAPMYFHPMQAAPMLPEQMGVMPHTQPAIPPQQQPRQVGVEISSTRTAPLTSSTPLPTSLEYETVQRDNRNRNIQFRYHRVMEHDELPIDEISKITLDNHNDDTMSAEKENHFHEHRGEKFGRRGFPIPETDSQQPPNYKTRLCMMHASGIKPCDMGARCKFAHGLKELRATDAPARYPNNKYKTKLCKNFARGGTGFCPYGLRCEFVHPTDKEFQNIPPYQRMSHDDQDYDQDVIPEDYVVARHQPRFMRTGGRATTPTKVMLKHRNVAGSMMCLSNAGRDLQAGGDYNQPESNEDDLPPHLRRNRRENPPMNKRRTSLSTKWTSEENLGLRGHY

[7] = target: T3, RNA-binding protein pos-1 (Caenorhabditis elegans, UniProt G5EF15); test: inhibitors of POS-1/mex-3 RNA binding, dose response, biochemical, fluorescence polarization (AID 1964);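 also: purified POS-1 fused to maltose binding protein made in E. coli; potency of compounds blocking POS-1 binding to fluorescent RNA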
T3 sequence (G5EF15 whole entry): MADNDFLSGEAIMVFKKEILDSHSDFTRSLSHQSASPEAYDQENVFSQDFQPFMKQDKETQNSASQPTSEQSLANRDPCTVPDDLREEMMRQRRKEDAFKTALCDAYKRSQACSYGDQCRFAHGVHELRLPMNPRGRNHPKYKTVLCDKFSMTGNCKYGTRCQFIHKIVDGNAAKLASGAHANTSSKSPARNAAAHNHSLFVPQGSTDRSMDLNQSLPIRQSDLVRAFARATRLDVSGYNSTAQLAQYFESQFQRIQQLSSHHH

[8] = target: T4, Protein RecA (Mycobacterium tuberculosis, UniProt P9WHJ3); test: Fluorescence Cell-Free Homogeneous Dose Retest to Identify Inhibitors of RecA-Intein Splicing Activity. [Related pubchem assays (depositor defined):AID2097, AID2223, AID489010, AID492950]; type: functional
T4 sequence (P9WHJ3 whole entry): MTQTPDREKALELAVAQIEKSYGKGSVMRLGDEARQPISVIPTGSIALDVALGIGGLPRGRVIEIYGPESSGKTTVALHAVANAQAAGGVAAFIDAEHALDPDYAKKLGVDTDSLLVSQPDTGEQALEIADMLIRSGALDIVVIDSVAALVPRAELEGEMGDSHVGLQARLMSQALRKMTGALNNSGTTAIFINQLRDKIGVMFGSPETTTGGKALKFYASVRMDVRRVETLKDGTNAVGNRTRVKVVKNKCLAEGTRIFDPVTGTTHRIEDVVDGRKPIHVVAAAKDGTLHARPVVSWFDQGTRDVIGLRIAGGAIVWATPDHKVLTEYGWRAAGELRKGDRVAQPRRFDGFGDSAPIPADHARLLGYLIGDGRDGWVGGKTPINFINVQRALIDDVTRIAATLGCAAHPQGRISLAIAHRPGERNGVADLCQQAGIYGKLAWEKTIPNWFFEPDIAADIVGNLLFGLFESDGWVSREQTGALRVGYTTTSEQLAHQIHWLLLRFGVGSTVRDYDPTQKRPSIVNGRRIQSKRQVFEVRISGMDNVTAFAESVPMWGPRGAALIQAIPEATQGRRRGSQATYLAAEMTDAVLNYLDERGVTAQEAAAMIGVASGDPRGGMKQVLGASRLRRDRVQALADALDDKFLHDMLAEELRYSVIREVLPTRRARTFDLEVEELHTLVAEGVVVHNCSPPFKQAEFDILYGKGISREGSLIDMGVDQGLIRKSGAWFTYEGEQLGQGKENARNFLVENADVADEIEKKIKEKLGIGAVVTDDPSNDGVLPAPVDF

[9] = target: T5, Replicative DNA helicase DnaB (Mycobacterium tuberculosis, UniProt P9WMR3); test: DnaB intein splicing inhibitors, dose response, biochemical, cell-free fluorescence (AID 449749); type: functional
T5 sequence (P9WMR3 whole entry): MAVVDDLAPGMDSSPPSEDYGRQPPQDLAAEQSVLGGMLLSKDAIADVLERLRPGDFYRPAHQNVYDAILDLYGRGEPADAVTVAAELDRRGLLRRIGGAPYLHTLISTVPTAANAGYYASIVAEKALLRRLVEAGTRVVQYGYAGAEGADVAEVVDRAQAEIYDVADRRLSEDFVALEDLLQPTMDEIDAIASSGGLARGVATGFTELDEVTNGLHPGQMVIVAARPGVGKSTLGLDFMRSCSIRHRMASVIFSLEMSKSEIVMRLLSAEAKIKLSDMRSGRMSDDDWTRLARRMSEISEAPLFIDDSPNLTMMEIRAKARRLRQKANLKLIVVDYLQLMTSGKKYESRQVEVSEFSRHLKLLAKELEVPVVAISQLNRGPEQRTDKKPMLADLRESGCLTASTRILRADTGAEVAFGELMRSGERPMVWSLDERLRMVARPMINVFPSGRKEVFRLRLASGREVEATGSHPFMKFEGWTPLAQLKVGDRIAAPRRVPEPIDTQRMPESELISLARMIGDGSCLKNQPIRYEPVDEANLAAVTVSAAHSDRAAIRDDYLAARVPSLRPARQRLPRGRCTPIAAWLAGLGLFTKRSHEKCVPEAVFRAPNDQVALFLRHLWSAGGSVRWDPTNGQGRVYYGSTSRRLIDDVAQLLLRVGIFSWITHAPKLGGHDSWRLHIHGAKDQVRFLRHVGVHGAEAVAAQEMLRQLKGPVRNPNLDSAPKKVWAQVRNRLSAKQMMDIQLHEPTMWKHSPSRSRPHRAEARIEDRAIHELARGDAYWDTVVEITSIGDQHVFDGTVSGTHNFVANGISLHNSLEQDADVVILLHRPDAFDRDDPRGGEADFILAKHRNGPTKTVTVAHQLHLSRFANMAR

[10] = target: Cytochrome P450 2C9 (Homo sapiens, UniProt P11712)
Cytochrome P450 2C9, sequence (P11712 whole entry): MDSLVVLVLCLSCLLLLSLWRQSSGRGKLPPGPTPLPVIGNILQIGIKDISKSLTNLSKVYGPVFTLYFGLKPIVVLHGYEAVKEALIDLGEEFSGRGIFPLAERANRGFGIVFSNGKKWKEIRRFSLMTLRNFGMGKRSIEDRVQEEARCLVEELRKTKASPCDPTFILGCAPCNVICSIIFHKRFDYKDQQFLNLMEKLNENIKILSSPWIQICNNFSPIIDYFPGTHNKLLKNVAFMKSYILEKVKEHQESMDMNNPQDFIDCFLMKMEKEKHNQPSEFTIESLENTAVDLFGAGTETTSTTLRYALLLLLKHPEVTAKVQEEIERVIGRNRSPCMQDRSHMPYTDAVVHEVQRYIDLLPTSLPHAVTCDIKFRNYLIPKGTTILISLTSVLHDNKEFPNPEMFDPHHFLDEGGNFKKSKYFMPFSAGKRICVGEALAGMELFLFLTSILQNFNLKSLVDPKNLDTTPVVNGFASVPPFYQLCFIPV

[11] = target: Cytochrome P450 2C19 (Homo sapiens, UniProt P33261); test: Cytochrome panel assay with activity outcomes. Panel member name: p450-cyp2c19 Compounds with AC50 equal or less than 10 uM are considered active; type: functional; conditions: read-out: AC50
Cytochrome P450 2C19, sequence (P33261 whole entry): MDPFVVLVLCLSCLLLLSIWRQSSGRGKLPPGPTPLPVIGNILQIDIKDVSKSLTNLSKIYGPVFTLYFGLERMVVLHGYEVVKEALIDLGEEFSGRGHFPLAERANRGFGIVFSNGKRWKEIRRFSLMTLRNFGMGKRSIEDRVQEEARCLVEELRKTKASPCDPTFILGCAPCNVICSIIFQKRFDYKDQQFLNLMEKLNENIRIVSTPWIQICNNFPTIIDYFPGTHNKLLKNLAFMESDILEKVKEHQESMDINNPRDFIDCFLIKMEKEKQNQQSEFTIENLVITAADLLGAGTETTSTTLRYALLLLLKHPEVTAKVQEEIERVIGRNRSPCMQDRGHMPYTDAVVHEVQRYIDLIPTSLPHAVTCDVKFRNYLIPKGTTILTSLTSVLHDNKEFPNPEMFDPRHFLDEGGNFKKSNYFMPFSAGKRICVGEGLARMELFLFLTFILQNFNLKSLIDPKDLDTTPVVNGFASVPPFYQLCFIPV

[12] = tested on: Vero; test: cells; type: functional; conditions: Chlorocebus sabaeus
[13] = target: Paired box protein Pax-8 (Homo sapiens, UniProt Q06710); test: inhibitors of PAX8-driven TPO luciferase reporter, dose response, RMG-I cells, cherry-pick (AID 687027); type: functional, cell-based;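 also: luciferase reporter driven by Pax8 target thyroperoxidase promoter measured by SteadyGlo luminescence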
Paired box protein Pax-8, sequence (Q06710 whole entry): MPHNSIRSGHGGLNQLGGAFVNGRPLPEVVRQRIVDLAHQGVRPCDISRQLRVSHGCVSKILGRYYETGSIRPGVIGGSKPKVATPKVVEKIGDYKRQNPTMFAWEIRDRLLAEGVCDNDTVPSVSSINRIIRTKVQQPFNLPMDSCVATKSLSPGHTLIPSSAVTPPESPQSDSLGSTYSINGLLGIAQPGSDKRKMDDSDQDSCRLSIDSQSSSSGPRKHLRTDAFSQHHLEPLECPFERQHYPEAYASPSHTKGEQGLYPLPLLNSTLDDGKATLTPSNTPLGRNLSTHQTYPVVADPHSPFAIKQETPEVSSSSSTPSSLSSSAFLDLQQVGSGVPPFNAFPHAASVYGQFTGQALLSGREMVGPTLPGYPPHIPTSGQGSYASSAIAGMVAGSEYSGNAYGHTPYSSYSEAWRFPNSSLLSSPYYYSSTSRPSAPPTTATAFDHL

[14] = tested on: Streptococcus; test: Group A Streptococcus viability loss, dose response, counter-screen for streptokinase expression inhibitor project, luminescence, BacTiterGlo (AID 1915); type: functional, organism-based;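 also: potency for reduction of bacterial viability or growth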
[15] = tested on: BJ; test: cells; type: functional, cell-based; conditions: Homo sapiens
[16] = tested on: BJ; test: cytotoxicity toward BJ-TERT fibroblasts, dose response, cell-based, RAS-independent, luminescence (AID 1933); type: functional; conditions: Homo sapiens
[17] = tested on: Streptococcus sp. 'group A'; test: growth inhibition of control SK(-) GAS strain, dose response, counter-screen for streptokinase expression inhibitor project, luminescence, kanamycin, BacTiterGlo, confirmation (AID 1900); type: functional, organism-based
[18] = tested on: BJ; test: cytotoxicity toward BJ-TERT-LT-ST fibroblasts, dose response, cell-based, RAS-independent, luminescence (AID 1935); type: functional; conditions: Homo sapiens;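 also: BJ fibroblasts immortalized with TERT plus LT and ST oncogenes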
[19] = cytotoxicity toward DRD oncogenic fibroblasts, dose response, cell-based, non-viral oncogenic, luminescence (AID 1934); type: functional; conditions: Homo sapiens

COc1ccc(C(CC(=O)Nc2ccccc2OC)n2cccc2)cc1 (configuration not stated)
EC50 [1]: 2.27 µM (active) | EC50 [2]: > 350 µM (not active)

CC(Cc1ccccc1)NC(=O)c1cc([N+](=O)[O-])ccc1Cl (configuration not stated)
IC50 [3]: 5.69 µM (active) | IC50 [4]: 5.85 µM (active)

Cc1cccc(OCCn2cccc2/C=C2/C(=O)NC(=O)N(Cc3ccco3)C2=O)c1
EC50 [1]: > 350 µM (not active) | EC50 [2]: > 350 µM (not active)

CC(C)(C)N1C(=O)[C@H]2[C@@H](c3ccc(Br)cc3)N3C(=O)N(c4ccc(Br)cc4)C(=O)[C@@]3(Cc3ccccc3)[C@H]2C1=O
IC50 [3]: 10.3 µM (active) | IC50 [4]: 10.5 µM (active)

CCOC(=O)c1sc(Nc2cccc(Cl)c2)nc1C
EC50 [1]: 19.5 µM (active) | EC50 [2]: > 350 µM (not active) | CC50 [5]: > 50 µM (active)

Cc1cccc(S(=O)(=O)C(C#N)c2nc3ccccc3nc2N2CCOCC2)c1 (configuration not stated)
EC50 [6]: > 300 µM (not active) | EC50 [7]: 163 µM (active)

Cc1ccc(C(=O)NC(=S)NNS(=O)(=O)c2ccc(C)cc2)cc1
EC50 [8]: 146 µM (active) | EC50 [1]: > 350 µM (not active) | EC50 [2]: > 350 µM (not active) | AC50 [9]: 58.9 µM (active)

COc1ccc(-c2csc3nc(-c4ccccc4F)oc(=O)c23)cc1
IC50 [3]: 2.83 µM (active) | IC50 [4]: 1.16 µM (active)

CCOC(=O)N1CCN(c2nc3ccccc3nc2C(C#N)S(=O)(=O)c2ccc(C)cc2)CC1 (configuration not stated)
EC50 [6]: 170 µM (inconclusive) | EC50 [7]: > 300 µM (inconclusive)

NS(=O)(=O)c1ccc(-c2cccc(/C=C3\SC(=O)NC3=O)c2)cc1
EC50 [6]: 16.6 µM (active) | EC50 [7]: 13 µM (active)

COc1ccc(/C=C/C(O)=C2\C(=O)NC(=O)N(CCC3=CCCCC3)C2=O)cc1OC
EC50 [6]: > 300 µM (inconclusive) | EC50 [7]: 6.09 µM (inconclusive)

COc1ccc(NC(=O)Nc2ccc(Br)cn2)cc1
EC50 [1]: > 350 µM (not active) | EC50 [2]: > 350 µM (not active)

CN1C(=O)C(=Cc2ccc(N3CCCCC3)o2)C(=O)N(C)C1=S
AC50 [10]: 11.2 µM (inconclusive) | AC50 [11]: 2.82 µM (inconclusive) | EC50 [6]: > 300 µM (inconclusive) | EC50 [7]: > 300 µM (inconclusive)

COc1cccc(NC(=S)N(CCCN2CCOCC2)Cc2cn(C)c3ccccc23)c1
EC50 [1]: > 350 µM (not active) | EC50 [2]: > 350 µM (not active)

O=C(Nc1nc2ccc([N+](=O)[O-])cc2s1)c1c(F)cccc1F
EC50 [1]: 31.2 µM (active) | EC50 [2]: > 350 µM (not active)

O=[N+]([O-])c1cc(-c2csc(NCCc3nc4cc(Cl)c(Cl)cc4n3CCCO)n2)ccc1Cl
IC50 [3]: 2.49 µM (active) | IC50 [4]: 2.55 µM (active)

C[C@H](CO)N1C[C@H](C)[C@@H](CN(C)C(=O)Nc2ccccc2)Oc2c(NC(=O)Nc3ccc(C(F)(F)F)cc3)cccc2C1=O
IC50 [3]: 2.24 µM (active) | IC50 [4]: 2.08 µM (active)

O=[N+]([O-])c1cc(-c2csc(NCCc3nc4cc(C(F)(F)F)ccc4n3CCCO)n2)ccc1Cl
IC50 [3]: 5.17 µM (active) | IC50 [4]: 3.93 µM (active)

S=C(NCCc1ccccc1)N1Cc2cc(Br)ccc2-n2nncc2C1
IC50 [3]: 12.1 µM (active) | IC50 [4]: 7.04 µM (active)

CCOC(CNCc1cc(C)c2[nH]c3ccccc3c2c1C)OCC
CC50 [12]: 22.6 µM (active)

C[C@@H]1CN([C@H](C)CO)C(=O)c2cc(NC(=O)Nc3ccc(C(F)(F)F)cc3)ccc2O[C@@H](C)CCCCO[C@H]1CN(C)Cc1ccc(Cl)c(Cl)c1
AC50 [13]: 6.74 µM (active)

COc1cccc(/C=N/NC(=O)c2ccc([N+](=O)[O-])cc2Cl)c1O
EC50 [1]: 172 µM (active) | EC50 [2]: 19.1 µM (active)

Cc1ccc(-n2nc(C)c(/C=N/NC(=O)c3cccc([N+](=O)[O-])c3)c2O)cc1C
EC50 [14]: 6.18 µM (active) | EC50 [15]: 37 µM (active) | EC50 [16]: 9.53 µM (active) | EC50 [17]: 2.02 µM (active) | EC50 [18]: 16 µM (active) | EC50 [19]: 10 µM (active)

Oc1cccc2cccnc12 [OXYQUINOLINE]
EC50 [15]: 125 µM (active) | EC50 [16]: > 150 µM (not active) | EC50 [18]: > 150 µM (not active) | EC50 [19]: 17.9 µM (active)
